# From the supplement of paper PMC10307832
# Columns and labels:
# Assay in all cases: relative viability (nuclei count vs DMSO), 5 days (fraction); higher = more cells survive
# Sorafenib = compound: CNC(=O)c1cc(Oc2ccc(NC(=O)Nc3ccc(Cl)c(C(F)(F)F)c3)cc2)ccn1 [Sorafenib]
# How it was run: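 Hoechst staining, done together with fixation and permeabilisation, marked nuclei for 4× imaging and MetaXpress counting. This followed 5 days without medium change after lung cancer cell lines, kept overnight at 37 °C in 1536-well plates, were pinned with five library-drug doses (not always all listed) spaced by √10 on vehicle-anchored plates. Viability is the ratio of treated-well to vehicle-well nuclei, expressed as a median across plates. Plates passed only at control CV below 25% with at least one doubling.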
# Sorafenib + Foretinib = compound: CNC(=O)c1cc(Oc2ccc(NC(=O)Nc3ccc(Cl)c(C(F)(F)F)c3)cc2)ccn1 [Sorafenib] + COc1cc2c(Oc3ccc(NC(=O)C4(C(=O)Nc5ccc(F)cc5)CC4)cc3F)ccnc2cc1OCCCN1CCOCC1 [Foretinib] (partner 0.25 µM)
# How it was run: (§1)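 Five library-drug doses in √10 steps were combined with a fixed anchor-drug dose, or a single drug was given alone, by pin tool to lung cancer cell lines in 1536-well plates the day after seeding. Nuclei were stained and counted after 5 days. Relative viability is the nuclei count in treated wells over that in vehicle wells, taken as the median of duplicate plates.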
# Sorafenib + Lapatinib = compound: CNC(=O)c1cc(Oc2ccc(NC(=O)Nc3ccc(Cl)c(C(F)(F)F)c3)cc2)ccn1 [Sorafenib] + CS(=O)(=O)CCNCc1ccc(-c2ccc3ncnc(Nc4ccc(OCc5cccc(F)c5)c(Cl)c4)c3c2)o1 [Lapatinib] (partner 2 µM)
# How it was run: as §1
# Sorafenib + Pictilisib = compound: CNC(=O)c1cc(Oc2ccc(NC(=O)Nc3ccc(Cl)c(C(F)(F)F)c3)cc2)ccn1 [Sorafenib] + CS(=O)(=O)N1CCN(Cc2cc3nc(-c4cccc5[nH]ncc45)nc(N4CCOCC4)c3s2)CC1 [Pictilisib] (partner 1 µM)
# How it was run: as §1
# Sorafenib + Linsitinib = compound: CNC(=O)c1cc(Oc2ccc(NC(=O)Nc3ccc(Cl)c(C(F)(F)F)c3)cc2)ccn1 [Sorafenib] + C[C@]1(O)C[C@@H](c2nc(-c3ccc4ccc(-c5ccccc5)nc4c3)c3c(N)nccn32)C1 [Linsitinib] (partner 1 µM)
# How it was run: as §1
# Sorafenib + Alpelisib = compound: CNC(=O)c1cc(Oc2ccc(NC(=O)Nc3ccc(Cl)c(C(F)(F)F)c3)cc2)ccn1 [Sorafenib] + Cc1nc(NC(=O)N2CCC[C@H]2C(N)=O)sc1-c1ccnc(C(C)(C)C(F)(F)F)c1 [Alpelisib] (partner 2 µM)
# How it was run: as §1
# Sorafenib + Phenformin = compound: CNC(=O)c1cc(Oc2ccc(NC(=O)Nc3ccc(Cl)c(C(F)(F)F)c3)cc2)ccn1 [Sorafenib] + N=C(N)NC(=N)NCCc1ccccc1 [Phenformin] (partner 250 µM)
# How it was run: as §1
# Sorafenib + Decitabine = compound: CNC(=O)c1cc(Oc2ccc(NC(=O)Nc3ccc(Cl)c(C(F)(F)F)c3)cc2)ccn1 [Sorafenib] + Nc1ncn([C@H]2C[C@H](O)[C@@H](CO)O2)c(=O)n1 [Decitabine] (partner 2 µM)
# How it was run: as §1
# Sorafenib + Olaparib = compound: CNC(=O)c1cc(Oc2ccc(NC(=O)Nc3ccc(Cl)c(C(F)(F)F)c3)cc2)ccn1 [Sorafenib] + O=C(c1cc(Cc2n[nH]c(=O)c3ccccc23)ccc1F)N1CCN(C(=O)C2CC2)CC1 [Olaparib] (partner 8 µM)
# How it was run: as §1
# Sorafenib + Luminespib = compound: CNC(=O)c1cc(Oc2ccc(NC(=O)Nc3ccc(Cl)c(C(F)(F)F)c3)cc2)ccn1 [Sorafenib] + CCNC(=O)c1noc(-c2cc(C(C)C)c(O)cc2O)c1-c1ccc(CN2CCOCC2)cc1 [Luminespib] (partner 0.01 µM)
# How it was run: as §1
# Sorafenib + OSI-027 = compound: CNC(=O)c1cc(Oc2ccc(NC(=O)Nc3ccc(Cl)c(C(F)(F)F)c3)cc2)ccn1 [Sorafenib] + COc1cccc2cc(-c3nc([C@H]4CC[C@H](C(=O)O)CC4)n4ncnc(N)c34)[nH]c12 [OSI-027] (partner 0.5 µM)
# How it was run: as §1
# Sorafenib + Tozasertib = compound: CNC(=O)c1cc(Oc2ccc(NC(=O)Nc3ccc(Cl)c(C(F)(F)F)c3)cc2)ccn1 [Sorafenib] + Cc1cc(Nc2cc(N3CCN(C)CC3)nc(Sc3ccc(NC(=O)C4CC4)cc3)n2)n[nH]1 [Tozasertib] (partner 0.1 µM)
# How it was run: as §1
# Sorafenib + Dasatinib = compound: CNC(=O)c1cc(Oc2ccc(NC(=O)Nc3ccc(Cl)c(C(F)(F)F)c3)cc2)ccn1 [Sorafenib] + Cc1nc(Nc2ncc(C(=O)Nc3c(C)cccc3Cl)s2)cc(N2CCN(CCO)CC2)n1 [Dasatinib] (partner 0.075 µM)
# How it was run: as §1
cell line,measurement,setting,value
A549,relative viability,Sorafenib; 0.08 µM,1.07
same,relative viability,Sorafenib; 0.253 µM,0.921
same,relative viability,Sorafenib; 8 µM,0.523
same,relative viability,Sorafenib + Foretinib; first compound 0.08 µM,0.904
same,relative viability,Sorafenib + Foretinib; first compound 0.253 µM,0.893
same,relative viability,Sorafenib + Foretinib; first compound 2.53 µM,0.896
same,relative viability,Sorafenib + Foretinib; first compound 8 µM,0.584
same,relative viability,Sorafenib + Lapatinib; first compound 0.08 µM,1.02
same,relative viability,Sorafenib + Lapatinib; first compound 2.53 µM,0.962
same,relative viability,Sorafenib + Lapatinib; first compound 8 µM,0.208
same,relative viability,Sorafenib + Pictilisib; first compound 0.08 µM,0.631
same,relative viability,Sorafenib + Pictilisib; first compound 0.253 µM,0.5
same,relative viability,Sorafenib + Pictilisib; first compound 2.53 µM,0.412
same,relative viability,Sorafenib + Pictilisib; first compound 8 µM,0.116
same,relative viability,Sorafenib + Linsitinib; first compound 0.253 µM,0.622
same,relative viability,Sorafenib + Linsitinib; first compound 2.53 µM,0.512
same,relative viability,Sorafenib + Linsitinib; first compound 8 µM,0.341
same,relative viability,Sorafenib + Alpelisib; first compound 0.08 µM,0.803
same,relative viability,Sorafenib + Alpelisib; first compound 0.253 µM,0.664
same,relative viability,Sorafenib + Alpelisib; first compound 2.53 µM,0.735
same,relative viability,Sorafenib + Alpelisib; first compound 8 µM,0.453
same,relative viability,Sorafenib + Phenformin; first compound 0.08 µM,0.213
same,relative viability,Sorafenib + Phenformin; first compound 0.253 µM,0.158
same,relative viability,Sorafenib + Phenformin; first compound 2.53 µM,0.193
same,relative viability,Sorafenib + Phenformin; first compound 8 µM,0.0523
same,relative viability,Sorafenib + Decitabine; first compound 0.08 µM,0.233
same,relative viability,Sorafenib + Decitabine; first compound 0.253 µM,0.34
same,relative viability,Sorafenib + Decitabine; first compound 2.53 µM,0.218
same,relative viability,Sorafenib + Decitabine; first compound 8 µM,0.245
same,relative viability,Sorafenib + Olaparib; first compound 0.08 µM,0.496
same,relative viability,Sorafenib + Olaparib; first compound 0.253 µM,0.289
same,relative viability,Sorafenib + Olaparib; first compound 2.53 µM,0.302
same,relative viability,Sorafenib + Olaparib; first compound 8 µM,0.208
NCI-H1623,relative viability,Sorafenib; 0.08 µM,0.977
same,relative viability,Sorafenib; 0.253 µM,0.898
same,relative viability,Sorafenib; 2.53 µM,1.06
same,relative viability,Sorafenib; 8 µM,0.945
same,relative viability,Sorafenib + Luminespib; first compound 0.08 µM,0.544
same,relative viability,Sorafenib + Luminespib; first compound 0.253 µM,0.366
same,relative viability,Sorafenib + Luminespib; first compound 2.53 µM,0.611
same,relative viability,Sorafenib + Luminespib; first compound 8 µM,0.342
same,relative viability,Sorafenib + Foretinib; first compound 0.08 µM,1.06
same,relative viability,Sorafenib + Foretinib; first compound 0.253 µM,0.852
same,relative viability,Sorafenib + Foretinib; first compound 2.53 µM,0.975
same,relative viability,Sorafenib + Foretinib; first compound 8 µM,0.776
same,relative viability,Sorafenib + OSI-027; first compound 0.08 µM,0.414
same,relative viability,Sorafenib + OSI-027; first compound 0.253 µM,0.411
same,relative viability,Sorafenib + OSI-027; first compound 2.53 µM,0.5
same,relative viability,Sorafenib + OSI-027; first compound 8 µM,0.37
same,relative viability,Sorafenib + Tozasertib; first compound 0.08 µM,0.431
same,relative viability,Sorafenib + Tozasertib; first compound 0.253 µM,0.397
same,relative viability,Sorafenib + Tozasertib; first compound 2.53 µM,0.476
same,relative viability,Sorafenib + Tozasertib; first compound 8 µM,0.411
same,relative viability,Sorafenib + Dasatinib; first compound 0.08 µM,0.537
same,relative viability,Sorafenib + Dasatinib; first compound 0.253 µM,0.552
same,relative viability,Sorafenib + Dasatinib; first compound 2.53 µM,0.604
same,relative viability,Sorafenib + Dasatinib; first compound 8 µM,0.429
same,relative viability,Sorafenib + Phenformin; first compound 0.08 µM,0.651
same,relative viability,Sorafenib + Phenformin; first compound 0.253 µM,0.562
same,relative viability,Sorafenib + Phenformin; first compound 2.53 µM,0.66
same,relative viability,Sorafenib + Phenformin; first compound 8 µM,0.521
